For two molecules, Ki results are on record in ChEMBL document CHEMBL1132318, “Hydroxylated decahydroquinolines as ligands for the vesicular acetylcholine transporter: synthesis and biological evaluation” (J Med Chem, 1999).

Experiment [1] is described as follows: Displacement of [3H]vesamicol from Vesicular Acetylcholine Transporter (VAChT). A general note: Displacement assays read how much labelled ligand stays bound in the presence of the test substance.
Experiment [2] can be described thus: Binding affinity against Sigma opioid receptor type 1 in guinea pig brain membranes using [3H](+)-pentazocine as radioligand.

One may read the Ki as the dissociation constant of the complex between target and ligand, obtained from inhibition or displacement. Regarding `O[C@@H]1CCN(Cc2cccc(I)c2)C[C@H]1N1CCC(c2ccccc2)CC1` (racemic), in experiment [1], the affinity, expressed as Ki, was 0.13 nM. `O[C@@H]1CCCC[C@H]1N1CCC(c2ccccc2)CC1` [VESAMICOL] showed a Ki in experiment [2] of 26 nM.
